Here are results for 2 compounds from publication PMC3995910, “Effect of Proline Analogues on Activity of Human Prolyl Hydroxylase and the Regulation of HIF Signal Transduction Pathway” (PLoS ONE, 2014).

SMILES strings stand for the structures.

The target of this test is T1, Prolyl hydroxylase 3 (PHD3) (Homo sapiens, UniProt Q9H6Z9).
T1 construct: gene EGLN3; recombinant human PHD3 expressed in E. coli, ~45 kDa
Kind of test: fluorescence-based 2OG consumption assay (OPD derivatization), double-reciprocal kinetics. Type of test: biochemical.

T1 sequence (Q9H6Z9 whole entry): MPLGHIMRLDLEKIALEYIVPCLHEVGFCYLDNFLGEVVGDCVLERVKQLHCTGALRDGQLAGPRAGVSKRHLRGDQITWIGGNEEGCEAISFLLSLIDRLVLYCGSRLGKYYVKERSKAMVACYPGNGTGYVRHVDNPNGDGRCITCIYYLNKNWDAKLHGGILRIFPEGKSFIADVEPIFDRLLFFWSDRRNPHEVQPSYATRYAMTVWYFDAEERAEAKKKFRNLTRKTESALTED

For the compound `O=C(O)[C@H]1CCCN1C(=O)OCc1ccccc1` [PA2], the affinity, expressed as Ki, was 2380 nM. In turn, `O=C(Nc1ccccc1NC(=O)[C@H]1CCCN1)[C@H]1CCCN1` [PA1] showed a Ki of 1090 nM.
